For one compound, Activity results are on record in ChEMBL document CHEMBL1781900, “Synthesis and peptide incorporation of an unnatural amino acid containing activity-based probe for protein tyrosine phosphatases” (Bioorg Med Chem Lett, 2009).

Each structure is given as a SMILES string. Numbering of substitutions follows the chain as printed. Active and inactive are the calls of the source. No cut-off for these calls is given here.

Test [1] deals with T1, Tyrosine-protein phosphatase non-receptor type 1 (Homo sapiens) (UniProt P18031).
T1 sequence (whole entry): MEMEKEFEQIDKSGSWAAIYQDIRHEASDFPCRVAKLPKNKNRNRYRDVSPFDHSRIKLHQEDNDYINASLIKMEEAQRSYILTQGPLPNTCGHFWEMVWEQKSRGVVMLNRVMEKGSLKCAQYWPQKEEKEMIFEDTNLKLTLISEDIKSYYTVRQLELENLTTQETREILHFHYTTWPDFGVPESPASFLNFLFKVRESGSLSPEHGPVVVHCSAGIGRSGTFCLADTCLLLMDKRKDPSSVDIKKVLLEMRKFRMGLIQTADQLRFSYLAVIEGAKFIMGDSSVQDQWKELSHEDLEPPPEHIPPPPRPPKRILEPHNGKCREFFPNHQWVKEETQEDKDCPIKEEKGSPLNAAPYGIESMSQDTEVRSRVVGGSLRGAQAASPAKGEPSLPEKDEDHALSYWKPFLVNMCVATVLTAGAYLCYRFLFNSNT
As to the kind of experiment: Binding affinity to purified recombinant PTP1B using streptaive HRP at 20 uM after 1 hr by Western blotting analysis.

For test [2], the target named is Protein tyrosine phosphatase type IVA 3 (Homo sapiens) (UniProt O75365). In words: Binding affinity to purified recombinant PTP4A3 using streptaive HRP at 20 uM after 1 hr by Western blotting analysis.
Chain of Protein tyrosine phosphatase type IVA 3 (Homo sapiens) (O75365 whole entry): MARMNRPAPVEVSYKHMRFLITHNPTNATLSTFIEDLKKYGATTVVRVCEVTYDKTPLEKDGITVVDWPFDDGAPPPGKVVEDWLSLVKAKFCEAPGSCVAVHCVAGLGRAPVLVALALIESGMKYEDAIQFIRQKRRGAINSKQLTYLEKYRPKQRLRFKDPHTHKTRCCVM
Test [3] deals with T1, Tyrosine-protein phosphatase non-receptor type 1 (Homo sapiens). In words: Binding affinity to purified recombinant PTP1B using streptaive HRP at 200 uM after 1 hr by Western blotting analysis.
The target of test [4] is Protein tyrosine phosphatase type IVA 3 (Homo sapiens) (UniProt O75365). In words: Binding affinity to purified recombinant PTP4A3 using streptaive HRP at 200 uM by Western blotting analysis.
Test [5] concerns T2, Tyrosine-protein phosphatase non-receptor type 1 (Homo sapiens), P18031 [C215S].
T2 sequence (whole entry): T1 sequence (whole entry) with C215S
In words: Binding affinity to purified recombinant dPTP1B C215S mutant using streptaive HRP at 200 uM after 1 hr by Western blotting analysis.

Test [6] relates to Escherichia coli. As to the kind of experiment: Binding affinity to PTP1B in Escherichia coli lysate at 0.8 mM after 1 hr by Western blotting analysis.
In test [7] the test system is Escherichia coli. As to the kind of experiment: Binding affinity to PTP4A3 in Escherichia coli lysate at 0.8 mM after 1 hr by Western blotting analysis in presence of alpha-bromobenzylphosphonate.
For the next test, the system named is Jurkat. In words: Binding affinity to PTP1B in human Jurkat cell lysate at 0.8 mM after 1 hr by Western blotting analysis in presence of alpha-bromobenzylphosphonate. The class given is cell-free.

With `NC(=O)[C@H](Cc1ccc(OP(=O)(O)O)c(C(F)F)c1)NC(=O)[C@H](CC(=O)O)NC(=O)Cc1ccc(C(F)(F)P(=O)(O)O)cc1`, the result (in test [1]; in test [3]; in test [4]; in the test on Escherichia coli [6]; in the test on Escherichia coli [7]; with Jurkat) was Active. For the same compound, the outcome in test [2] and in test [5] was inactive.
